Results published in ChEMBL document CHEMBL1148999, “Antimalarial agents, 2. Artesunate, an inhibitor of cytochrome oxidase activity in Plasmodium berghei” (J Nat Prod, 1986).
Active and inactive are the calls of the source. The calls are words filed in the database; no cut-off is given here.

Columns and labels:
[1] = test system: Plasmodium berghei; assay: Inhibition of Plasmodium berghei trophozoite cytochrome oxidase after 30 min by osmium black staining
[2] = test system: Plasmodium berghei; assay: Inhibition of Plasmodium berghei trophozoite cytochrome oxidase at 1 mM after 30 min by osmium black staining
[3] = test system: Plasmodium berghei; assay: Inhibition of Plasmodium berghei trophozoite cytochrome oxidase at 100 nM after 30 min by osmium black staining
[4] = test system: Plasmodium berghei; assay: Inhibition of cytochrome oxidase in intraerythrocytic trophozoite of Plasmodium berghei infected CF1 mice (Mus musculus) at 100 mg/kg intravenous dose; assay type: functional, organism-based; parameters: dose 100 mg/kg

Activity [1]: Dose-dependent effect
Activity [2]: Active
Activity [3]: inactive
Structure (SMILES): C[C@H]1[C@H](OC(=O)CCC(=O)O)O[C@@H]2O[C@@]3(C)CC[C@H]4[C@H](C)CC[C@@H]1[C@@]24OO3
Activity [4]: Active
